Reference: the NIST ThermoML archive (doi:10.1016/j.fluid.2008.04.003)
Numbers after ± are expanded uncertainties.

Assay: wn = mass fraction of the nth substance listed
Settings: 101 kPa, Liquid; for viscosity: Capillary tube (Ostwald / Ubbelohde) method

NC(CO)(CO)CO [2-amino-2-(hydroxymethyl)-1,3-propanediol] + O
Settings | mass density, 283.15 K [kg/m3] | mass density, 288.15 K [kg/m3] | mass density, 293.15 K [kg/m3] | mass density, 298.15 K [kg/m3] | mass density, 303.15 K [kg/m3] | mass density, 308.15 K [kg/m3] | mass density, 313.15 K [kg/m3] | viscosity, 283.15 K [mPa·s] | viscosity, 298.15 K [mPa·s] | viscosity, 313.15 K [mPa·s]
w1 = 0.0015 | 1000.5 ± 1.1 | 999.9 ± 1.1 | 999.1 ± 1 | 997.9 ± 1.1 | 996.6 ± 1.1 | 995 ± 1.2 | 993.1 ± 1.2 | 1.315 ± 0.012 | 0.905 ± 0.009 | 0.656 ± 0.007
w1 = 0.005 | 1001.6 ± 1.1 | 1001.3 ± 1.1 | 1000.5 ± 1 | 999.4 ± 1.1 | 997.8 ± 1.1 | 996 ± 1.2 | 993.6 ± 1.2 | 1.354 ± 0.012 | 0.913 ± 0.009 | 0.662 ± 0.007
w1 = 0.01 | 1002.4 ± 1.1 | 1001.8 ± 1.1 | 1001 ± 1 | 1000 ± 1.1 | 998.7 ± 1.1 | 997.2 ± 1.2 | 995.4 ± 1.2 | 1.36 ± 0.012 | 0.917 ± 0.009 | 0.669 ± 0.007
w1 = 0.025 | 1006.8 ± 1.1 | 1006 ± 1.1 | 1005.1 ± 1.1 | 1003.8 ± 1.1 | 1002.3 ± 1.1 | 1000.7 ± 1.2 | 998.7 ± 1.2 | 1.422 ± 0.013 | 0.959 ± 0.009 | 0.696 ± 0.007
w1 = 0.1 | 1026.2 ± 1.1 | 1025 ± 1.1 | 1023.8 ± 1.1 | 1022.4 ± 1.1 | 1020.8 ± 1.1 | 1019.4 ± 1.2 | 1017.7 ± 1.2 | 1.802 ± 0.016 | 1.173 ± 0.011 | 0.857 ± 0.008
